Like-named read-outs stand apart in the source and are kept apart here. Square brackets hold non-standard residues; d marks the D form. Peptide text beside a SMILES is read from it.
Key:
[1] = tested on: human breast carcinoma and prostate cancer cells; conditions: cited from earlier work
[2] = tested on: human fibrosarcoma cell line HT-1080; assay type: cell-based
Description: To evaluate the activity of DIL, CopYL and seven other peptides described in Table 1, we have conducted the dose-response measurements on the sensitive (HT-1080) and insensitive (ZR-75-1) cancer cell lines. The results are shown in Fig. 7A–D. For fibrosarcoma cells HT-1080, the best results are obtained using the peptide DOL with presumed disulfide oxidase properties. […] This is a much better performance than shown by GO-202 where the survival rate under identical conditions is 16%.
All experiments were conducted in duplicate or triplicate.

[3] = tested on: human breast carcinoma cell line ZR-75-1
Description: (§1) As a next step, we used MTS assay[27] to examine the effect of GO peptides on the viability of the four described cell cultures as a function of different treatment schemes. […] This treatment regimen is labeled 4 × 5 underneath the graph. Alternatively, we introduced 5 μM of peptide daily while exchanging the medium (denoted 4/5). Unlike the previous protocol, it avoids potential build-up of the peptide in the medium.
(§2) The treatment protocols are: 4 × 5 – four daily doses of 5 μM delivered without exchanging the growth medium; 4/5 – four daily doses of 5 μM delivered with exchanged growth medium; 1 × 5, 1 × 10, 1 × 15, and 1 × 20 – a single dose of 5, 10, 15, or 20 μM, respectively. MTS reagent was added to the wells 96 h after the first (and sometimes the only) application of the peptide and the optical density at 492 nm was measured to determine the fraction of the surviving cells.
(§3) The data are according to the MTS assay, where the optical density was measured 96 h after the application of the peptide.
(§4) Cell survival was measured using CellTiter 96 AQueous One Solution Cell Proliferation Assay (MTS test, Promega, USA). Cells have been seeded in a 96-well flat-bottom plate in 100 μl of culture medium (10^3 cells/well for A549, HT-1080, dermal fibroblasts and eMSC or 5 × 10^3 cells/well for ZR-75-1) and allowed to attach for 24 h. The starting amount of cells was chosen to account for their growth rate and degree of spreading such as to avoid excessive dilution in the beginning of the experiment or control cell overgrowth toward the end. After 24 h, 10 μl of peptide stock solution or PBS (control) were added to the wells. After 96 h, 20 μl of the MTS-reagent were added to each well and 1–2 h later optical density was measured at the wavelength 492 nm using the 96-well plate reader (Titertek Multiskan, Labsystems, Finland). All experiments were conducted in duplicate or triplicate.

[4] = tested on: human fibrosarcoma cell line HT-1080; assay type: cell-based; conditions: for Viability of HT-1080 cells (MTS): single 20 μM dose, different incubation times, Fig. 9
[5] = cited from earlier work
Description: Some interesting examples of peptides with presumed DO mechanism can also be found in the literature. […] The efficiency of this peptide was critically dependent on the two contiguous cysteines: mutating these residues to alanines or serines completely abrogated its activity, whereas other alterations such as sequence reversal preserved the activity.

lysozyme = conditions: oxidative refolding of lysozyme in vitro; cited from earlier work
Description: One instructive example of the redox-active peptides in Table 1 is the peptide labeled DIL (disulfide-isomerase-like). Originally, Woycechowsky and Raines have investigated the CGC peptide, where they measured the redox potential of −167 mV[40]. […] Recently, a longer peptide, RKCGCFF, has been introduced by Liu et al.[41]. The two basic residues, RK, have been added to the sequence with the intent to lower the thiol pKa values, while the two hydrophobic residues, FF, have been included to improve binding of the pept ...

[6] = tested on: human endometrial mesenchymal stem cells (eMSC)
Description: as §3
(§5) As a next step, we set out to test the cytotoxic effect of these peptides on the normal cells. In addition to the primary culture of dermal fibroblasts, which has been discussed above, we have also used human endometrial mesenchymal stem cells (eMSC).
as §4

[7] = tested on: human breast carcinoma cell line ZR-75-1; assay: MTS cell viability assay, ZR-75-1; conditions: single dose
Description: as §1, §2, §3, §4

[8] = tested on: primary culture of human dermal fibroblasts (DF)
Description: as §1, §2
(§6) As a next step, we set out to test the cytotoxic effect of these peptides on the normal cells.
as §4

[9] = tested on: primary culture of human dermal fibroblasts (DF); assay: MTS cell viability assay, dermal fibroblasts; conditions: for Effect on proliferative activity at low dose (MTS): 5 μM single dose
Description: as §1, §2, §6, §4

[10] = target: T1, reduced and denatured hen egg white lysozyme (Gallus gallus, UniProt P00698); assay: Lysozyme oxidative refolding assay (disulfide oxidoreductase activity); assay type: biochemical; conditions: 1 mM peptide, pH 8.5, room temperature
T1 construct: Hen egg white lysozyme (Amresco, USA) was reduced/denatured and lyophilized; purchased Amresco, USA; host or cells: hen egg white
T1 sequence (P00698 19-147): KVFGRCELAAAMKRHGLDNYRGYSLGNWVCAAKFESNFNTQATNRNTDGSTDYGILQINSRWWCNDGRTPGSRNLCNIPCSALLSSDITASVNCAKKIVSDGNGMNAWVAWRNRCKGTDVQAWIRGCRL
Description: We have also conducted in vitro experiments to directly probe disulfide oxidoreductase properties of GO-202 peptide. For this purpose we have used the well-established lysozyme refolding assay. In brief, GO-202 is applied to the sample of reduced and denatured hen lysozyme. The protein then undergoes oxidative refolding, assisted by GO-202 which plays the role of disulfide oxidase (isomerase). After a certain interval of time (Tox) this process is quenched by adding an aliquot of acid and the sample is loaded on the reverse phase column.
Figure 10 Oxidative refolding of hen egg lysozyme as monitored by reverse-phase HPLC. […] Top panel (red traces) illustrate protein renaturation in the presence of GO-202; bottom panel (blue traces) represent control measurements with no peptide. The reaction time Tox ranging from 0 to 75 mins is listed on the left side of the individual chromatograms.
Hen egg white lysozyme (Amresco, USA) was reduced/denatured and lyophilized according to the protocol by van den Berg et al.[54]. It was then dissolved in buffer B1 (8 M urea, 100 mM Tris-HCl, 100 mM NaCl, 1 mM EDTA, pH 8.5) to obtain solution with 100 μM lysozyme concentration. Refolding was initiated by rapid dilution of 50 μL of this solution in 150 μL of buffer B2 (100 mM Tris-HCl, 100 mM NaCl, 1 mM EDTA, pH 8.5) containing the appropriate amount of redox agent (none for control experiment, 1.0 mM/0.2 mM GSH/GSSG for calibration experiment, 1 mM of GO-202 for disulfide oxidoreductase activity assay). The reactions were carried out at room temperature and quenched by addition of 10 μL of 2.5 M HCl to produce a pH of ca. 2. Buffers B1 and B2 were degassed prior to use by applying vacuum while stirred on magnetic stirrer for 30 min.
Reverse-phase chromatography data were obtained using Shimadzu Nexera HPLC with detection at 280 nm wavelength. The column used was Phenomenex Luna C-18 (5 μm particle size, 100 Å pore size, 150 mm length, 4.6 mm diameter); sample injection volume was 20 μL. HPLC solvent A was H2O/0.2% (v/v) trifluroacetic acid (TFA), solvent B was 90% CH3CN/10% H2O/0.2% TFA. Lysozyme was eluted using 30 min linear gradient from 35% to 45% of solvent B with a flow rate of 1 mL/min. Chromatograms from calibration GSH/GSSG experiments were in agreement with the previously reported data[54][63].

[11] = tested on: human endometrial mesenchymal stem cells (eMSC); assay: MTS cell viability assay, eMSC; conditions: normal cells: eMSC; single dose, 96 h; Fig. 7E,F
Description: as §3, §5, §4

[R]9AQARRKNYGQLDIFP [CP-1]
Cytotoxic properties [1]: no appreciable cytotoxic properties

[R]9GCGPCG [DRL]
Cytotoxic activity compared with GO-202 (dose-response, MTS) [2]: inactive
Cytotoxic activity compared with GO-202 (dose-response, MTS) [3]: inactive

[R]9SQCRRKN
Viability of HT-1080 cells (MTS) [4]: inactive

GKAKCCK
antimicrobial activity [5]: pronounced antimicrobial activity

[R]9CQSRRKN
Viability of HT-1080 cells (MTS) [4]: inactive

[R]9SQSRRKN [control: GO-202 with S-for-C substitution]
Viability of HT-1080 cells (MTS) [4]: ineffective
Cytotoxic activity compared with GO-202 (dose-response, MTS) [2]: inefficient compared to GO-202

RKCGCFF [peptide of Liu et al., mimic of disulfide isomerase]
Efficiency as a mimic of disulfide isomerase (lysozyme): increased efficiency

[R]9FFCPHCYQ [DOL]
Cytotoxic activity compared with GO-202 (dose-response, MTS) [2]: best results
survival rate (MTS assay) ([2]; HT-1080, 96 h incubation with 20 μM peptide, single dose): essentially fully eliminated
Cytotoxic activity compared with GO-202 (dose-response, MTS) [3]: best result
Cytotoxic activity compared with GO-202 (dose-response, MTS) [6]: outperform GO-202
Effectiveness in killing cancer cells relative to GO-202 ([7]; 20 μM, MTS 96 h): three times more effective
Cytotoxic activity compared with GO-202 (dose-response, MTS) [8]: strongest effect

N=C(N)NCCC[C@@H](N)C(=O)N[C@H](CCCNC(=N)N)C(=O)N[C@H](CCCNC(=N)N)C(=O)N[C@H](CCCNC(=N)N)C(=O)N[C@H](CCCNC(=N)N)C(=O)N[C@H](CCCNC(=N)N)C(=O)N[C@H](CCCNC(=N)N)C(=O)N[C@H](CCCNC(=N)N)C(=O)N[C@H](CCCNC(=N)N)C(=O)N[C@@H](CS)C(=O)N[C@@H](CCC(N)=O)C(=O)N[C@@H](CS)C(=O)N[C@@H](CCCNC(=N)N)C(=O)N[C@@H](CCCNC(=N)N)C(=O)N[C@@H](CCCCN)C(=O)N[C@@H](CC(N)=O)C(=O)O [GO-202] (H-[dR][dR][dR][dR][dR][dR][dR][dR][dR]CQCRRKN-OH; N-terminus and C-terminus assumed)
Cell viability (MTS) ([4]; HT-1080, 4 × 5: four daily doses of 5 μM without exchanging growth medium, OD 492 nm 96 h after first application, duplicate or triplicate): significant impact
Viability of HT-1080 cells (MTS) [4]: cell death occurs soon after the GO-202 treatment
Effect on proliferative activity at low dose (MTS) ([9]; dermal fibroblasts, 96 h): small increases in proliferative activity
Cell viability (MTS) ([9]; dermal fibroblasts, 4 × 5: four daily doses of 5 μM without exchanging growth medium, OD 492 nm 96 h after first application): significant impact
Cytotoxic activity compared with GO-202 (dose-response, MTS) ([9]; normal cells: dermal fibroblasts, single dose, 96 h, Fig. 7E,F): highly sensitive
Disulfide oxidoreductase activity in oxidative refolding of lysozyme ([10]; 25 μM-scale lysozyme diluted from 100 μM stock, RP-HPLC 280 nm): moderately effective disulfide oxidoreductase
Reaction time Tox after which a significant fraction of lysozyme is fully oxidized natively folded ([10]; RP-HPLC): 15 min
Reaction time Tox after which native form of lysozyme is dominant ([10]; RP-HPLC): 75 min
Reaction time Tox after which no distinct peak from reduced lysozyme is observed ([10]; RP-HPLC, control without peptide: partially oxidized after ca. 75 mins): ≤ 1 min
Cytotoxic activity compared with GO-202 (dose-response, MTS) ([7]; OD measured 96 h after application, Fig. 7C,D): modestly active
Cytotoxic activity compared with GO-202 (dose-response, MTS) [11]: highly sensitive

[R]9KCGCFF [DIL]
Effect on proliferative activity at low dose (MTS) ([9]; dermal fibroblasts, 96 h): small increases in proliferative activity
Cytotoxic activity compared with GO-202 (dose-response, MTS) [2]: second best result
Cytotoxic activity compared with GO-202 (dose-response, MTS) [3]: significantly outperform GO-202
Cytotoxic activity compared with GO-202 (dose-response, MTS) [6]: less cytotoxic than GO-202
Cytotoxic activity compared with GO-202 (dose-response, MTS) [8]: less cytotoxic than GO-202

[R]9CCCRRKN
Effect on proliferative activity at low dose (MTS) ([9]; dermal fibroblasts, 96 h): small increases in proliferative activity
Cytotoxic activity compared with GO-202 (dose-response, MTS) [2]: outperform the standard GO-202, although only by a small margin
Cytotoxic activity compared with GO-202 (dose-response, MTS) [3]: significantly outperform GO-202
Cytotoxic activity compared with GO-202 (dose-response, MTS) [6]: strongest effect
Cytotoxic activity compared with GO-202 (dose-response, MTS) [8]: outperform GO-202
